Results as given in article PMC9426601 (mBio, 2022).
Where two headings read alike, the source gives them in different places.

Legend:
[1] = molecular target: NA activity of A(H3N2)-PA/I38T (Influenza A virus, UniProt P06818); format: biochemical
[2] = molecular target: NA activity of A(H1N1pdm09)-PA/E23K (Influenza A virus, UniProt C7FH46); format: biochemical; conditions: read-out: IC50 (nM), neuraminidase inhibitor
[3] = tested on: A(H3N2)-PA/I38T; format: cell-based, influenza A(H3N2) virus
[4] = tested on: A(H1N1pdm09)-PA/E23K; format: cell-based, influenza A(H1N1pdm09) virus
[5] = tested on: A(H3N2)-PA/I38T; format: cell-based, influenza A(H3N2) virus; remark: listed apart in the source
[6] = tested on: A(H1N1pdm09)-PA/E23K; format: cell-based, influenza A(H1N1pdm09) virus; remark: listed apart in the source
[7] = tested on: A(H3N2) 80% WT: 20% PA/I38T; design: species or system ferrets (Mustela putorius furo); AUC (area under the curve of nasal wash viral titer): unit not given beside the values; conditions: in vivo
[8] = tested on: A(H3N2) 100% PA/I38T; design: species or system ferrets (Mustela putorius furo); AUC (area under the curve of nasal wash viral titer): unit not given beside the values; conditions: in vivo
[9] = tested on: A(H1N1pdm09) 80% WT: 20% PA/E23K; design: species or system ferrets (Mustela putorius furo); AUC (area under the curve of nasal wash viral titer): unit not given beside the values; conditions: in vivo
[10] = tested on: A(H1N1pdm09) 100% PA/E23K; design: species or system ferrets (Mustela putorius furo); AUC (area under the curve of nasal wash viral titer): unit not given beside the values; conditions: in vivo
[11] = read-out: Baloxavir EC50 (nM) FRA
[12] = read-out: Baloxavir EC50 (nM) YRA
[13] = read-out: Oseltamivir IC50 (nM) YRA

Compound: CCC(CC)[C@H](NC(C)=O)[C@@H]1[C@H](O)[C@@H](C(=O)O)C[C@H]1N=C(N)N [Peramivir]
- IC50 ([1]; read-out: IC50 (nM), neuraminidase inhibitor): 0.12 ± 0.1 nM
- IC50 [2]: 0.17 ± 0.01 nM

Compound: O=C1c2c(O)c(=O)ccn2N([C@@H]2c3ccccc3SCc3c2ccc(F)c3F)[C@@H]2COCCN12 [Baloxavir, baloxavir acid]
- fold higher EC50 compared to the corresponding pretreatment virus, FRA [3]: 77 fold
- EC50 [3, 11]: 46 ± 6.9 nM
- fold higher EC50 compared to the corresponding pretreatment virus, FRA [4]: 17 fold
- EC50 [4, 11]: 20.8 ± 10.2 nM
- fold increase in EC50 compared to the corresponding WT, YRA [5]: 100 fold
- EC50 [5, 12]: 40.1 ± 15.6 nM
- fold increase in EC50 compared to the corresponding WT, YRA [6]: 9 fold
- EC50 [6, 12]: 2.6 ± 0.07 nM
- AUC (area under the curve of nasal wash viral titer) [7]: 18.6 ± 1.4
- Duration of viral shedding [7]: 4.7 ± 0.5 days
- AUC (area under the curve of nasal wash viral titer) [8]: 23.4 ± 1.4
- Duration of viral shedding [8]: 5.7 ± 0.5 days
- reduction in AUC relative to placebo [8]: 10%
- reduction in viral shedding relative to placebo [8]: 0.6 days
- AUC (area under the curve of nasal wash viral titer) [9]: 24.7 ± 2.4
- Duration of viral shedding [9]: 5.3 ± 0.5 days
- reduction in AUC relative to placebo [9]: 6%
- AUC (area under the curve of nasal wash viral titer) [10]: 28.6 ± 0.8
- Duration of viral shedding [10]: 6.3 ± 0.5 days
- rapid reduction in viral load in the first 24 h following treatment [10]: not observed
- reduction in AUC relative to placebo [10]: no significant difference

Compound: CCOC(=O)C1=C[C@@H](OC(CC)CC)[C@H](NC(C)=O)[C@@H](N)C1 [Oseltamivir, oseltamivir]
- IC50 ([1]; read-out: Oseltamivir IC50 (nM) NIA): 0.15 ± 0.11 nM
- AUC (area under the curve of nasal wash viral titer) [7]: 19.3 ± 1.8
- AUC (area under the curve of nasal wash viral titer) [9]: 26.9 ± 1.7
- AUC greater than placebo [9]: 7%
- AUC (area under the curve of nasal wash viral titer) [10]: 26.2 ± 1.3
